Read-outs that look alike come from different tables or passages of the source.
Legend:
[1] = Metabolic stability in human liver microsomes; format: in vitro ADME; settings: for microsomal CLint: 0.5 mg protein/mL
How it was run: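 Compound incubated at 37 °C with 0.5 mg protein/mL liver microsomes plus cofactors in PBS, sampled at 0–60 min, quenched with cold acetonitrile and quantified by HPLC-MS/MS (n=3). Half-life and Clint (μL/min/mg) come from the slope of ln(% remaining) versus time.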

[2] = target: T1, RORγt (RORγ-LBD chimeric receptor) (Homo sapiens, UniProt P51449); test: Luciferase reporter gene assay of RORγt agonistic activity in HEK293T cells; format: cell-based; parameters: Emax: dose or concentration left out as unconfirmed; settings: for EC50: HEK293T, GAL4 luciferase reporter, read-out: EC50; for Emax: HEK-293T
T1 construct: host or cells: HEK293T
T1 sequence (P51449 269-508 limits assumed): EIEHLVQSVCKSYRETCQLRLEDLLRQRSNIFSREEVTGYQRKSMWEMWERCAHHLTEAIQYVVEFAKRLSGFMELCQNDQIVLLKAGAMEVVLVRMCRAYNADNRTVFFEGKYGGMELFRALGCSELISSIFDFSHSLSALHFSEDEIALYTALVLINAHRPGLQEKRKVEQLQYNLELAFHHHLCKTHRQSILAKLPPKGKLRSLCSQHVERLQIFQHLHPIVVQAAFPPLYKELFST
How it was run: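 HEK293T cells co-transfected with GAL4-RORγ-LBD (pBIND) and GAL4-driven luciferase reporter (pGL4.35), then treated with compounds (10-point 3-fold series; 10 mM top DMSO stock). Luminescence (Steady-Glo) normalised to positive and vehicle controls as % activity; EC50 by log-concentration fit.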

[3] = Pharmacokinetic (PK) assay in mice; format: in vivo; settings: CD-1 mice; for AUC(0-t) / Cmax / half-life / Vd / bioavailability: mouse, plasma; for Vd: read-out: Vss; for bioavailability: Po 5 mg/kg vs IV 1 mg/kg
How it was run: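 CD-1 mice (3 per group) were dosed IV at 1 mg/kg in 5% DMSO/40% PEG400/55% (20% 3-CD) or by oral gavage at 5 mg/kg in DMSO/1% methylcellulose (1:99). Saphenous blood was sampled from 0 to 24 h into EDTA-K2 tubes for plasma. Plasma levels were measured by UPLC-MS/MS, and PK parameters were calculated from them.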

[4] = test system: mouse spleen lymphocytes (Th17 cells); test: Th17 differentiation and IL-17 secretion in mouse lymphocytes; format: cell-based; settings: Lymphocyte, IL-17 ELISA after 48 hours; for Emax: maximum activation rate
Method: Test procedure: the mouse spleen lymphocytes were first isolated, and the lymphocytes were subject to the conditions of stimulating factors (anti-mCD28: 5 μg/mL; rmTGF-β1: 1 ng/mL; rmIL-6: 50 ng/mL; rmIL-23: 5 ng/mL) and differentiated to Th17, while adding different concentrations of compounds. All test compounds were serially diluted at 3-fold dilution with DMSO, with 8 serial dilutions starting from the maximum concentration 3 μM. The supernatants were collected after 48 hours for IL-17 ELISA detection, and compared with the solvent group, to determine the activation rate of the compounds on Th17 cells to secrete IL-17. EC50 values were fitted with Graphad 8.0, and the TOP values fitted by the software was Emax %.

| SMILES | half-life [1] | microsomal CLint [1] | % Remaining (T = 60 min) [1] | EC50 [2] | Emax [2] | CL_obs ([3]; IV 1 mg/kg, values marked **) | AUC(0-t) ([3]; IV 1 mg/kg) | Cmax ([3]; IV 1 mg/kg) | half-life ([3]; IV 1 mg/kg) | Vd ([3]; IV 1 mg/kg, values marked *) | bioavailability [3] | AUC(0-t) ([3]; Po 5 mg/kg) | Cmax ([3]; Po 5 mg/kg) | half-life ([3]; Po 5 mg/kg) | EC50 [4] | Emax [4] | CL_obs ([3]; IV 1 mg/kg) | Vd ([3]; IV 1 mg/kg) |
| --- | --- | --- | --- | --- | --- | --- | --- | --- | --- | --- | --- | --- | --- | --- | --- | --- | --- | --- |
| COCC(C(=O)Nc1ccc(-c2ccc(S(=O)(=O)C3CC3)cc2)c(C(F)(F)F)c1)c1ccc(S(C)(=O)=O)cc1 (single isomer, unassigned) [Example 43, (S)—N-(4′-(cyclopropylsulfonyl)-2-(trifluoromethyl)-[1,1′-biphenyl]-4-yl)-3-methoxy-2-(4-(methylsulfonyl)phenyl)propionamide or (R)—N-(4′-(cyclopropylsulfonyl)-2-(trifluoromethyl)-[1,1′-biphenyl]-4-yl)-3-methoxy-2-(4-(methylsulfonyl)phenyl)propanamide] | 1.68 h | 13.8 µL/min/mg | 69% | 57 nM | 64.1% | 4.31** mL/min/kg | 3810 ng·h/mL | 787 ng/mL | 4.14 h | 1.38 L/kg | 89.1% | 17100 ng·h/mL | 3040 ng/mL | 3.51 h |  |  |  |  |
| CCS(=O)(=O)c1ccc(CC(=O)Nc2cc(Cl)c(-c3ccc(S(C)(=O)=O)cc3)c(Cl)c2)cc1 [Example 2, N-(2,6-dichloro-4′-(methylsulfonyl)-[1,1′-biphenyl]-4-yl)-2-(4-(ethylsulfonyl)phenyl)acetamide] | > 2.42 h | < 9.6 µL/min/mg | 75.7% | 19 nM | 43% |  | 2250 ng·h/mL | 737 ng/mL | 1.76 h |  | 112% | 12600 ng·h/mL | 3030 ng/mL | 2.46 h | 114 nM | 203% | 426.2 mL/h/kg | 1.09 L/kg |
| CCS(=O)(=O)c1ccc(-c2c(Cl)cc(NC(=O)Cc3ccc(S(C)(=O)=O)cc3)cc2Cl)cc1 [Example 4, N-(2,6-Dichloro-4′-(ethylsulfonyl)-[1,1′-biphenyl]-4-yl)-2-(4-(methylsulfonyl)phenyl)acetamide] | > 2.42 h | < 9.6 µL/min/mg | 83.4% | 17 nM | 64% |  |  |  |  |  |  |  |  |  | 112 nM | 156% |  |  |
| CCS(=O)(=O)c1ccc(-c2c(Cl)cc(NC(=O)Cc3ccc(S(=O)(=O)CC)cn3)cc2Cl)cc1 [Example 5, N-(2,6-Dichloro-4′-(ethylsulfonyl)-[1,1′-biphenyl]-4-yl)-2-(5-(ethylsulfonyl)pyridin-2-yl)acetamide] | > 2.42 h | < 9.6 µL/min/mg | 76.7% | 37 nM | 69.6% |  | 730 ng·h/mL | 1360 ng/mL | 0.45 h |  | 38.8% | 1420 ng·h/mL | 1770 ng/mL | 0.5 h | 11.4 nM | 147% | 1367 mL/h/kg | 0.893 L/kg |
| CCS(=O)(=O)c1ccc(CC(=O)Nc2cc(Cl)c(-c3ccc(S(C)(=O)=O)cc3)c(Cl)c2)nc1 [Example 8, N-(2,6-Dichloro-4′-(methylsulfonyl)-[1,1′-biphenyl]-4-yl)-2-(5-(ethylsulfonyl)pyridin-2-yl)acetamide] | > 2.42 h | < 9.6 µL/min/mg | 95.6% | 44 nM | 37.9% |  |  |  |  |  |  |  |  |  | 370 nM | 85% |  |  |
| CCS(=O)(=O)c1ccc(-c2c(Cl)cc(NC(=O)Cc3ccc(S(C)(=O)=O)cn3)cc2Cl)cc1 [Example 9, N-(2,6-Dichloro-4′-(ethylsulfonyl)-[1,1′-biphenyl]-4-yl)-2-(5-(methylsulfonyl)pyridin-2-yl)acetamide] | > 2.42 h | < 9.6 µL/min/mg | 102.5% | 53 nM | 51.5% |  |  |  |  |  |  |  |  |  | 943 nM | 65.4% |  |  |
| CS(=O)(=O)c1ccc(CC(=O)Nc2cc(Cl)c(-c3ccc(S(=O)(=O)C4CC4)cc3)c(Cl)c2)cc1 [Example 11, N-(2,6-Dichloro-4′-(cyclopropylsulfonyl)-[1,1′-biphenyl]-4-yl)-2-(4-(methylsulfonyl)phenyl)acetamide] | > 2.42 h | < 9.6 µL/min/mg | 110.5% | 15 nM | 45% |  | 7250 ng·h/mL | 709 ng/mL | 6.33 h |  | 86.1% | 31200 ng·h/mL | 3810 ng/mL | 4.52 h | 318 nM | 123% | 128.6 mL/h/kg | 1.04 L/kg |
| CCS(=O)(=O)c1ccc(-c2c(Cl)cc(NC(=O)C(COC)c3ccc(S(=O)(=O)CC)cc3)cc2Cl)cc1 (stereo not drawn) [Example 13, N-(2,6-Dichloro-4′-(ethylsulfonyl)-[1,1′-biphenyl]-4-yl)-2-(4-(ethylsulfonyl)phenyl)-3-methoxypropionamide] | 2.07 h |  | 71.4% | 69 nM | 71.9% |  | 786 ng·h/mL | 1320 ng/mL | 0.63 h |  | 24.2% | 952 ng·h/mL | 1220 ng/mL | 0.54 h | 5.7 nM | 134% | 1264.7 mL/h/kg | 0.713 L/kg |
| CCS(=O)(=O)c1ccc(C(COC)C(=O)Nc2cc(Cl)c(-c3ccc(S(=O)(=O)C4CC4)cc3)c(Cl)c2)cc1 (stereo not drawn) [Example 16, N-(2,6-Dichloro-4′-(cyclopropylsulfonyl)-[1,1′-biphenyl]-4-yl)-2-(4-(ethylsulfonyl)phenyl)-3-methoxypropionamide] | > 2.42 h | < 9.6 µL/min/mg | 100.7% | 181 nM | 85.6% | 4.51** mL/min/kg | 3660 ng·h/mL | 1170 ng/mL | 3.88 h | 1.1 L/kg | 56.3% | 10300 ng·h/mL | 1420 ng/mL | 3.3 h |  |  |  |  |
| COCC(C(=O)Nc1cc(Cl)c(-c2ccc(S(=O)(=O)C3CC3)cc2)c(Cl)c1)c1ccc(S(C)(=O)=O)cc1 (stereo not drawn) [Example 20, N-(2,6-Dichloro-4′-(cyclopropylsulfonyl)-[1,1′-biphenyl]-4-yl)-3-methoxy-2-(4-(methylsulfonyl)phenyl)propionamide] | 1.34 h | 17.3 µL/min/mg | 53.9% | 81 nM | 63.5% | 1.98** mL/min/kg | 8280 ng·h/mL | 1160 ng/mL | 4.85 h | 0.75 L/kg | 57.3% | 21600 ng·h/mL | 1660 ng/mL | 6.95 h |  |  |  |  |

Source: patent US20220402867A1, “SULFO-SUBSTITUTED BIARYL COMPOUND OR SALT THEREOF, PREPARATION METHOD THEREFOR, AND USE THEREOF” (Shanghai Litedd Co., Ltd., priority 2019, published 2022)
